{"source": "paper PMC3527734", "about": "“Peripheral injections of melanin-concentrating hormone receptor 1 antagonist S38151 decrease food intake and body weight in rodent obesity models” (Frontiers in Endocrinology, 2012)", "key": {"[1]": {"tested_on": "Zucker fa/fa rats", "details": "cyclophosphamide 100 mg/kg i.p., S38151 20 nmol/kg (28 μg/kg) i.c.v., n = 8", "procedure": "These experiments were performed with modifications to previously described methods (Madden et al., [1999]). Rats were individually housed in wire-bottomed plastic cages with free access to both food pellets (6 mm diameter A03 UAR) and kaolin powder. The food pellets were presented in a small porcelain bowl on the floor of the cage. The kaolin powder was presented in a metal feeding dish attached to the inside of the cage. After a 2-week habituation period to these conditions, the animals were randomized into five treatment groups based on the quantity of food eaten during the stabilization period. In addition, those rats that consistently spilled the kaolin powder were eliminated from the study. One day after randomization, the animals were injected just before the beginning of the dark phase with either cyclophosphamide (100 mg/kg, i.p.), or S38151 [20 nmol/kg (28 μg/kg) i.c.v.] or vehicle [(artificial CSF) i.c.v.]. After injection, the quantity of kaolin and food ingested during the following 24-h period was determined. Food or kaolin spilled by the animals was collected at the end of the experiment, and total food and kaolin intake measurements were corrected for this loss.\nFigure 5 The effects of S38151 on conditioned taste aversion and pica in Zucker fa/fa rats. (A) In the conditioned taste aversion test, after a period of habituation of the animals to the experimental protocol, Zucker fa/fa rats were presented with 0.2% saccharine for 20 min after drinking water was removed from their cages for 18 h (test day 0). Animals were then injected (i.p.) with vehicle or lithium chloride, or with S38151 (20 nmol/kg, i.c.v). On test days 4, 7, 11, and 14, rats were presented with 0.2% saccharine, and the quantity consumed during a 20-min period was determined. Results are expressed as mean ± SEM (n = 10–11 rats per group). […] (B) In the pica test, Zucker fa/fa rats were injected (i.c.v.) with 20 nmol/kg S38151, or an equivalent volume of artificial cerebrospinal fluid vehicle. Food and kaolin intake during the following 24-h period were each measured. Results are expressed as mean ± SEM (n = 8 rats per group)."}, "[2]": {"tested_on": "Zucker fa/fa rats", "test": "conditioned taste aversion", "type": "in vivo, rat", "details": "test days 4, 7, 11, 14 versus control; lithium chloride 75 mg/kg i.p.; S38151 20 nmol/kg i.c.v.; n = 10-11"}, "[3]": {"tested_on": "ob/ob mice", "test": "daily i.c.v. MCH, food intake and body weight in obese mice", "type": "in vivo", "details": "MCH 5 μg/mouse/day i.c.v. for 5 days, n = 10", "procedure": "(§1) For the MCH daily repeated i.c.v. injection studies, 13-week-old female C57BL/6J and ob/ob mice were used (Harlan, Gannat, France).\n(§2) Figure 7 The effect of repeated daily central administration of MCH to lean (C57BL/6J) and obese (ob/ob) mice. C57BL/6J (A and B) and ob/ob (C and D) mice were administered MCH (5 μg/mouse/day) or artificial cerebrospinal fluid vehicle through i.c.v. injections for 5 consecutive days. Results are expressed as mean ± SEM (n = 10 mice per group). […] TEXT PRINTED IN THE PICTURE: (A) MCH: Food Intake/24h (g), C57BL/6J: Δ = 1.3 g | (B) MCH: Δ Body Weight (g), C57BL/6J: Δ = 1.3 g | (C) MCH: Food Intake/24h (g), ob/ob: Δ = 3.2 g | (D) MCH: Δ Body Weight (g), ob/ob: Δ = 2.1 g DOUBTS OF THE COPYIST ABOUT THIS PICTURE: The Δ values are printed beside the curve pairs with no substance label; I assigned them to MCH, reading them as the MCH versus Control difference."}, "[4]": {"tested_on": "C57BL/6J mice", "test": "daily i.c.v. MCH, food intake and body weight in lean mice", "type": "in vivo, mouse", "details": "n = 10", "procedure": "as §1, §2"}, "[5]": {"tested_on": "Wistar rats", "test": "NEI-MCH-induced food intake after acute i.c.v. injection", "type": "in vivo, rat", "details": "NEI-MCH alone or any combination of NEI-MCH and S38151, i.c.v.", "excerpt": "Wistar and Zucker fa/fa rats were anesthetized with Forène (Abbott Laboratories, Queenborough, UK), and a stainless steel guide cannula (Plastic Products Co, Roanoke, Va, USA) was stereotaxically implanted into the right lateral ventricle at the following coordinates relative to the bregma: AP −0.8 mm, L = −1.2 mm, and V = −3.5 mm. After a 7-day recovery period, during which the animals were handled each day to minimize non-specific stress, they were lightly anesthetized with Forène. Human/mouse/rat MCH (1 μg in a volume of 2.5 μ L, Bachem, Voisins-le-Bretonneux, France) or an equivalent volume of artificial cerebrospinal fluid (CSF) was then injected through the intraventricular cannula. Immediately after injection, the animals quickly recovered and were returned to their home cages. Only those animals responding within 2 h with a robust increase in food intake, indicating correct cannula placement, were used in the experiments described below. Two days after MCH injection, the rats were randomly assigned to different groups and studied in one of the following protocols.\nWistar rats were habituated for at least 2 weeks before experiment to a diet of food pellets (6 mm diameter) of the following composition: 67.5% food flour, 26.5% sucrose, 5% gum tragacanth, and 1.25% magnesium stearate (A03 UAR, Orge, France). The food pellets were present in a metal food hopper attached to the inside of each cage. At 09:00 on the day of study, the animals were lightly anesthetized with Forene® (Abbott, France). Thereafter, rats were injected intra-cerebroventricular (i.c.v.) with vehicle (artificial CSF) or with S38151 [0.5, 5, 10, 20, 30, or 50 nmol/kg ([…], 14, 28, 42, or 70 μg/kg, respectively)] in a volume of 2.5 μL, 20 min prior to the injection of human/rat NEI-MCH [5 nmol/kg (18.7 μg/kg) in a volume of 2.5 μL].\nFood intake was measured at different times after peptide injection. Food spillage was carefully quantified during each time period, and intake measurements were corrected for this loss. At the end of the experiments, the animals were euthanized and the positions of the cannulae were assessed by the injection of 100 μ L Evans blue dye (2 mg/mL) followed by the visual examination of brain slices. Only data obtained from animals with correctly positioned cannulae were included in the final data analysis.\nFigure 3 The effect of S38151 on NEI-MCH-induced food intake in Wistar rats after acute central administration. Satiated rats were injected (i.c.v.) at the beginning of the light phase with 5 μg NEI-MCH, 5 μg NEI-MCH + differing doses of S38151 (0.5–50 nmol/kg), or an equivalent volume of artificial cereblospinal fluid vehicle (5 μL). Cumulative food intake was measured at 1, 2, 4, 6, and 24 h post-injection."}}, "note": "Where no end group is shown, it is not given here.", "data": [{"compound": "O=P1(N(CCCl)CCCl)NCCCO1", "note": "(centres unmarked) [Cyclophosphamide, cyclophosphamide, reference compound]", "values": [{"measurement": "kaolin intake, 24 h, pica test", "setting": "[1]; vehicle 0.05 ± 0.01 g", "value": "significant increase"}, {"measurement": "food intake, 24 h, pica test", "setting": "[1]; vehicle 27 ± 1 g", "value": "nearly complete suppression"}]}, {"compound": "[Cl-].[Li+]", "note": "[lithium chloride, reference compound]", "values": [{"measurement": "0.2% saccharine consumption", "setting": "[2]", "value": "significant reduction"}]}, {"compound": "Melanin-concentrating hormone [MCH]", "values": [{"measurement": "Δ body weight vs. controls, after 5 days", "setting": "[3]", "value": "+2.1 g"}, {"measurement": "Δ food intake vs. controls, day 5", "setting": "[3]", "value": "+3.2 g"}, {"measurement": "Δ food intake vs. controls, day 5", "setting": "[4]; MCH 5 μg/mouse/day (100 nmol/kg/day) i.c.v. for 5 days", "value": "+1.3 g"}, {"measurement": "Δ body weight vs. controls, day 5", "setting": "[4]; MCH 5 μg/mouse/day i.c.v. for 5 days", "value": "+1.3 g"}]}, {"compound": "NEI-MCH: stable precursor of melanin-concentrating hormone, human/rat NEI-MCH (EIGDEENSAKFPIGRRDFDMLRCMLGRVYRPCWQV; ends and bridges not checked; cysteine pairing not given here; UniProt P20382 131-165, looked up, fragment) [reference compound]", "values": [{"measurement": "food intake during the entire 24-h period versus control group", "setting": "[5]", "value": "not significantly altered"}]}]}
